Test results: PMC3608514 (Advances in enzyme regulation, 2009)

Columns and labels:
DGK-θ [1] = molecular target: T1, DGK-θ (Homo sapiens, UniProt P52824)
T1 sequence (P52824 1-942): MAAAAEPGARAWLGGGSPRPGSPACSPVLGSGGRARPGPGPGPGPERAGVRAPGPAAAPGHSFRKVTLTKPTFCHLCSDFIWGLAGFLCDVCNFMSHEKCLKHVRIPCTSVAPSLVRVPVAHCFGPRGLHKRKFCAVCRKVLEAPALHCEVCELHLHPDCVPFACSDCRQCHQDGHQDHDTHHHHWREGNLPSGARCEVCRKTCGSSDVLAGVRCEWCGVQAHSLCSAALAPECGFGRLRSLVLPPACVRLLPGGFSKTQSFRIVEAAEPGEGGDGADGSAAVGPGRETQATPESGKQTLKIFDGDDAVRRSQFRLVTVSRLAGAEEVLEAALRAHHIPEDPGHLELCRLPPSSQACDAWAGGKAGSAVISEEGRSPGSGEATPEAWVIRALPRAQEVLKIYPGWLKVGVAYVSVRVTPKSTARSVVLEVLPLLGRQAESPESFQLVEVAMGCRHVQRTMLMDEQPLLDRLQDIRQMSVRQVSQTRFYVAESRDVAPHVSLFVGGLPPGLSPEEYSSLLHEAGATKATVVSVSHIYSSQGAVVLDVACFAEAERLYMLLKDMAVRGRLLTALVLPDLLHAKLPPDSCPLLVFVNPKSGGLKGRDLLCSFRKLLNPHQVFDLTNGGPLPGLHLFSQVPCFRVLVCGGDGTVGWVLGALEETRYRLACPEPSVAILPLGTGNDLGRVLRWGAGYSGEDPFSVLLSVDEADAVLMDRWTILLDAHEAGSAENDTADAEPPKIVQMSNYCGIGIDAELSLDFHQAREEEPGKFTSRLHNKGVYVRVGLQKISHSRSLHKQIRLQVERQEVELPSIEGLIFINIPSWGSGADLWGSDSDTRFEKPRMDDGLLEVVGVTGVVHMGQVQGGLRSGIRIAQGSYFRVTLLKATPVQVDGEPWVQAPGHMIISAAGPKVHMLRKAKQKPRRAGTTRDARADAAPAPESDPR

DGK-θ [2] = molecular target: T1, DGK-θ; assay: DGK activity assay; assay type: biochemical

Which “DGK activity assay in OG mixed micelles with cytosol over-expressing DGKθ; dose” value (DGK-θ [1]) does the source give for `O=P(O)(O)OP(=O)(O)O` [NaPPi, sodium pyrophosphate] here?
The value was 1 to 2 mM.

`COc1ccc2c(c1)CC[C@@H]1[C@@H]2CC[C@]2(C)[C@@H](NCCCCCCN3C(=O)C=CC3=O)CC[C@@H]12` [U73122] was tested. Which Ki (DGK-θ [2]) did it give?
The Ki was about 20 µM.
